From patent US20260217697A1, “COMPOUNDS COMPRISING HETEROARYL RINGS AND COMPOSITIONS AND METHODS THEREOF” (lonGen Therapeutics Co., Ltd., priority 2022, published 2026)
pIC50: −log10 of the molar value.

Molecular target: T1, hTRPV3 (Homo sapiens, UniProt Q8NET8)
T1 construct: The commercially available plasmid with the full-length cDNA of hTRPV3 (791 aa) (NM_001258205.2); host or cells: HEK293T
T1 sequence (Q8NET8 1-791 isoform Q8NET8-2): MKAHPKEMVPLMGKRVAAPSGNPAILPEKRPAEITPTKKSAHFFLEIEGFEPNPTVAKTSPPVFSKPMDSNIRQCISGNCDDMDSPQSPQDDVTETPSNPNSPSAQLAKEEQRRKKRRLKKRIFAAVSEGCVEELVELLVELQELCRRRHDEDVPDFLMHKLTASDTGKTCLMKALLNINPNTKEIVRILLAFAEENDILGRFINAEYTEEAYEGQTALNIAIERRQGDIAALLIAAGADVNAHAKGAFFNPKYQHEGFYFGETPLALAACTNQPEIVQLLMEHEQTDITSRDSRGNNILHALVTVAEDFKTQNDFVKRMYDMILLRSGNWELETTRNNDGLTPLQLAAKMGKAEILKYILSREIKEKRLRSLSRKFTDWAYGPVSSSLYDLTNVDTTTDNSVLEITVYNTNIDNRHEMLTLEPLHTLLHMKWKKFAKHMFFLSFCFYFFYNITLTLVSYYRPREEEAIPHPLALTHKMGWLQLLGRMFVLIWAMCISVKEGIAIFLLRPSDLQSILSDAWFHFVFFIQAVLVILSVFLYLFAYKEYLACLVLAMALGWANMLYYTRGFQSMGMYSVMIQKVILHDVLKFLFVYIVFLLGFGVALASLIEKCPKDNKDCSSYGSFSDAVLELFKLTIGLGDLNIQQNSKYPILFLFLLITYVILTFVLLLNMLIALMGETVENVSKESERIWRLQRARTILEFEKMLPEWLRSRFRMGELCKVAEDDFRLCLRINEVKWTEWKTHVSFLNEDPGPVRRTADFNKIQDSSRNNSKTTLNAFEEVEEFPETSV
Assay: Whole-cell patch-clamp recording of hTRPV3 current in transfected HEK293T cells (2-APB induced)
Format: cell-based
Details: current induced by 300 μM 2-APB, compounds tested up to 10 μM, room temperature
Description: Various technologies can be utilized to assess TRPV3 activation in accordance with the present disclosure. For example, in some embodiments, compounds are assessed in in vitro patch clamp experiments. Certain useful procedures are described herein as examples.
In some embodiments, whole-cell patch-clamp recordings were used to detect the current through hTRPV3 channels in the HEK293T cell line transfected with hTRPV3 cDNA and evaluate the exact blocking effect of compounds on hTRPV3. In some embodiments, a perfusion system was adopted to control the extracellular solution, including the addition of the agonist and different antagonists.
HEK293T cells were cultured in a Dulbecco's modified Eagle's medium containing 10% fetal bovine serum (Thermo Scientific) and 1% penicillin/streptomycin (Thermo Scientific) at 37° C. with 5% CO2. The commercially available plasmid with the full-length cDNA of hTRPV3 (791 aa) (NM_001258205.2) was purchased from OriGene Technologies. The transfection of hTRPV3 plasmids was conducted using Lipofectamine™ 3000 following the manufacturer's instructions (Invitrogen).
Whole-cell patch-clamp experiments were performed 18 h post-transfection, using a MultiClamp 700B amplifier driven by pClamp 11 software (Molecular Devices). In order to achieve good single-cell physical separation, HEK293T cells with hTRPV3 expression were digested and then re-plated at low density on glass coverslips. Electrodes were pulled from borosilicate glass with a P-97 micropipette puller (Sutter Instruments) and those with resistances of 3-5 MΩ are used for experiments. In some embodiments, an Ag—AgCl wire was used as a reference electrode and signals are filtered using a 2.9 kHz low-pass Bessel filter. Membrane potential was held at 0 mV. For recording of agonist-induced activation and inhibition by different test compounds, currents were elicited by a protocol consisting of a 400-ms step to +80 mV, followed by a 400-ms step to −80 mV at 2-s intervals. both pipette and bath solutions contained 130 mM NaCl, 0.3 mM EDTA, and 3 mM HEPES (buffered to pH 7.4 with NaOH). All recordings were made at room temperature.
All patch-clamp recordings were analyzed using the Clampfit software and GraphPad Prism 6.0 software. Specifically, data are analyzed by calculating the degree of current amplitude after the test compound addition compared with the unblocked agonist-induced current amplitude. The resulting blocking percentage at each concentration was used to make a concentration-response analysis and fitted to the Hill equation: blocking percentage=minimum blocking percentage+ (maximum blocking percentage-minimum blocking percentage)/(1+10^(Hill slope* […])). The minimum blocking percentage is 0% and maximum blocking percentage is 100%, while the Hill slope and the IC50 were determined as the curve fitting routine. Compounds of interest were tested against hTRPV3 at concentrations up to 10 μM, and certain data was used to estimate IC50 as described herein.

Compound | pIC50
COc1ncnc(OC)c1C(=O)Nc1nc2c(s1)C1(CN(C(=O)OC(C)(C)C)C1)Oc1cc(C(C)C)ccc1-2 [compound 132, tert-butyl 2′-(4,6-dimethoxypyrimidine-5-carboxamido)-7′-isopropylspiro[azetidine-3,4′-chromeno[4,3-d]thiazole]-1-carboxylate] | 6.00 to 7.00
COc1ncnc(OC)c1C(=O)Nc1nc2c(s1)C1(CCN(C(=O)C3CC3)CC1)Oc1cc(C(F)(F)F)ccc1-2 [compound 69, N-(1′-(cyclopropanecarbonyl)-7-(trifluoromethyl)spiro[chromeno[4,3-d]thiazole-4,4′-piperidin]-2-yl)-4,6-dimethoxypyrimidine-5-carboxamide] | 6.00 to 7.00
COc1ncnc(OC)c1C(=O)Nc1nc2c(s1)CSc1ccc(Cl)cc1-2 [compound 5, N-(8-chloro-4H-thiochromeno[4,3-d]thiazol-2-yl)-4,6-dimethoxypyrimidine-5-carboxamide] | ≤ 5.00
COc1ncnc(OC)c1C(=O)Nc1nc2c(s1)C1(COC1)Oc1cc(C(C)(C)O)ccc1-2 [compound 139, N-(7-(2-hydroxypropan-2-yl)spiro[chromeno[4,3-d]thiazole-4,3′-oxetan]-2-yl)-4,6-dimethoxypyrimidine-5-carboxamide] | ≤ 5.00
C=CCN1c2cc(C(F)(F)F)ccc2-c2nc(NC(=O)c3c(OC)ncnc3OC)sc2C1(C)C [compound 88, N-(5-allyl-4,4-dimethyl-7-(trifluoromethyl)-4,5-dihydrothiazolo[5,4-c]quinolin-2-yl)-4,6-dimethoxypyrimidine-5-carboxamide] | 6.00 to 7.00
CCC1(CC)Oc2cc(C(F)(F)F)ccc2-c2nc(N3CN(C)c4ncnc(OC)c4C3=O)sc21 [compound 143, 3-(4,4-diethyl-7-(trifluoromethyl)-4H-chromeno[4,3-d]thiazol-2-yl)-5-methoxy-1-methyl-2,3-dihydropyrimido[4,5-d]pyrimidin-4 (1H)-one] | ≤ 5.00
COc1ncnc(OC)c1C(=O)Nc1nc2c(s1)C1(Oc3cc(C(F)(F)F)ccc3-2)C2CC3CC(C2)CC1C3 (stereo not drawn) [compound 20, 4,6-dimethoxy-N-(7′-(trifluoromethyl)spiro[adamantane-2,4′-chromeno[4,3-d]thiazol]-2′-yl)pyrimidine-5-carboxamide] | 6.00 to 7.00
CCOC(=O)c1ccc2c(c1)OC(CC)(CC)c1sc(NC(=O)c3c(OC)ncnc3OC)nc1-2 [compound 62, ethyl 2-(4,6-dimethoxypyrimidine-5-carboxamido)-4,4-diethyl-4H-chromeno[4,3-d]thiazole-7-carboxylate] | 5.00 to 6.00
CCC1(CC)Oc2cc(C(F)(F)F)ccc2-c2nc(NC(=O)c3c(C)n[nH]c3C)sc21 [compound 93, N-(4,4-diethyl-7-(trifluoromethyl)-4H-chromeno[4,3-d]thiazol-2-yl)-3,5-dimethyl-1H-pyrazole-4-carboxamide] | 5.00 to 6.00
COc1ncnc(OC)c1C(=O)Nc1nc2c(s1)C1(CN(CCN(C)C)C1)Oc1cc(C(F)(F)F)ccc1-2 [compound 164, N-(1-(2-(dimethylamino)ethyl)-7′-(trifluoromethyl)spiro[azetidine-3,4′-chromeno[4,3-d]thiazol]-2′-yl)-4,6-dimethoxypyrimidine-5-carboxamide] | 5.00 to 6.00
CCC1(CC)Oc2cc(C(F)(F)F)ccc2-c2nc(NC(=O)c3c[nH]nc3OC)sc21 [compound 94, N-(4,4-diethyl-7-(trifluoromethyl)-4H-chromeno[4,3-d]thiazol-2-yl)-3-methoxy-1H-pyrazole-4-carboxamide] | ≤ 5.00
COc1ncnc(OC)c1C(=O)Nc1nc2c(s1)C(C)(CCc1ccccc1)Oc1cc(C(F)(F)F)ccc1-2 (stereo not drawn) [compound 42, 4,6-dimethoxy-N-(4-methyl-4-phenethyl-7-(trifluoromethyl)-4H-chromeno[4,3-d]thiazol-2-yl)pyrimidine-5-carboxamide] | 6.00 to 7.00
